Results on two molecules are retold here after patent publication US20250338850A1, “COMPOSITION AND METHOD FOR CONTROLLING WEEDS IN TURFGRASS” (SYNGENTA CROP PROTECTION AG, priority 2022, published 2025).

Data set [1] concerns kikuyugrass. Briefly: Turfgrass injury trial on kikuyugrass. It counts as in vivo. The text has this:
In a kikuyugrass trial, trifloxysulfuron (TSS) (Monument 75 WDG) was applied solo at 28 g ai/ha and compared to a mixture of TSS and metcamifen (MET). The TSS-MET mixture contains trifloxysulfuron and meticamifen at a ratio of 20 to 75 g. Both Monument and the TSS-MET mixture were applied at 28 g ai/ha TSS.

For data set [2], the system named is St Augustinegrass variety 'Classic'. Briefly: Turfgrass injury trial on St Augustinegrass variety 'Classic'. It counts as in vivo. The source says: In a trial conducted on St Augustinegrass variety ‘Classic’, trifloxysulfuron (TSS) (Monument 75 WDG) was applied at 28 g ai/ha with and without metcamifen applied at 30, 75 and 150 g ai/ha. Two applications were applied on a 30-day interval (initial treatment and second treatment).

For the molecule `CNC(=O)Nc1ccc(S(=O)(=O)NC(=O)c2ccccc2OC)cc1` [Metcamifen, 2-Methoxy-N-[[4-[[(methylamino)carbonyl]amino]phenyl]sulfonyl]benzamide], the trifloxysulfuron safening entry in data set [1] (TSS-MET mixture at 28 g ai/ha TSS) is on record as “almost complete trifloxysulfuron safening”; in data set [2] (metcamifen 30, 75 and 150 g ai/ha with TSS 28 g ai/ha) it was “almost complete trifloxysulfuron safening”. Moreover, the “injury at all rating dates” value in data set [2] (TSS 28 g ai/ha with metcamifen at 30, 75 and 150 g ai/ha, all rating dates) is given as “Less than 5%”.
Turning to `COc1cc(OC)nc(NC(=O)NS(=O)(=O)c2ncccc2OCC(F)(F)F)n1` [TSS (Monument), N-[[(4,6-dimethoxy-2-pyrimidinyl)amino]carbonyl]-3-(2,2,2-trifluoroethoxy)-2-pyridinesulfonamide], the “injury, 7DAA-2” value in data set [1] (28 g ai/ha TSS, 7 days after application 2) amounted to 40a %. Further, in data set [1] (28 g ai/ha TSS, 14 days after application 1), the “injury, 14DAA-1” value is recorded as 22.5a %. Also, in data set [1] (28 g ai/ha TSS, 14 days after application 2), the “injury, 14 DAA-2” value is 40a %. In addition, the “injury, 21 DAA-1” value in data set [1] (28 g ai/ha TSS, 21 days after application 1) is recorded as 37.4a %. Also, the “injury, 21 DAA-2” value in data set [1] (28 g ai/ha TSS, 21 days after application 2) is 40a %. In data set [1] (28 g ai/ha TSS, 28 days after application 1), the “injury, 28 DAA-1” value was 34.9a %. In addition, the “injury, 28 DAA-2” value in data set [1] (28 g ai/ha TSS, 28 days after application 2) worked out at 32.5a %. Moreover, the “injury” value in data set [1] (trifloxysulfuron solo 28 g ai/ha, two applications on a 28-day interval) was 40%. Further, in data set [2] (TSS 28 g ai/ha, 9 days after the initial application), the “injury, 9 DAIT (Initial Treatment)” value was 71%. The “injury, 17 DAIT” value in data set [2] (TSS 28 g ai/ha, 17 days after the initial application) is 85%. The “injury, 24 DAIT” value in data set [2] (TSS 28 g ai/ha, 24 days after the initial application) turned out to be 98%. In data set [2] (TSS 28 g ai/ha, 30 days after the initial application), the “injury, 30 DAIT (Second Treatment)” value came out at 85%. Besides, the “injury, 41 DAIT” value in data set [2] (TSS 28 g ai/ha, two applications, 30-day interval, 41 days after the initial application) was found to be 80%. Besides, the “injury, 51 DAIT” value in data set [2] (TSS 28 g ai/ha, two applications, 30-day interval, 51 days after the initial application) was found to be 81%.
